For 8 compounds, IC50 results are on record in patent publication US20220041578A1, “ISOINDOLINE COMPOUND, AND PREPARATION METHOD, PHARMACEUTICAL COMPOSITION, AND APPLICATION OF ISOINDOLINE COMPOUND” (Shanghai Institute of Meteria Medica, Chinese Academy of …, priority 2018, published 2022).

Where two headings read alike, the source gives them in different places.

Holding throughout (assay type): cell-based
For one assay, the system named is Mino cells. The assay can be described thus: Effect of the compound on the proliferation of Mino cells (MTS). Conditions: Homo sapiens, 72 h, 3 days, read-out: Inhibitory activity (IC50). The method, then:
Mino cells were cultured with 1640 plus […] and collected. The cell concentration was diluted according to the action time of 3 days, and 90 ul cell suspension was added to each well of the 96-well cell plate to make the cell count to be 8000. 10 ul of DMSO with a final concentration of 0.2% was added to the control cell wells. The compound was diluted 5-fold with the 10 mM stock solution, and 10 ul was also added to the compound cell wells (the final concentration of DMSO was 0.2%). The cells were placed in a 37° C., […] incubator and incubated for 3 days. After preparing the reaction solution according to the MTS kit (Promega, G5430), 20 μL was added to each well, incubated in a 37° C., 5% CO2 incubator for 3-4 h. Read the 490 nm absorbance value with a microtiter plate, and used the 690 nm absorbance value as the background value and OD490-OD690 as the final initial data. The formula for calculating the inhibition rate of the compound was: inhibition rate=(OD DMSO-ODcompound)/(ODDMSO-Oblank)×100%. The compound's proliferation inhibition IC50 was fitted by Graph Pad Prism 5.0. The experiment was repeated three times, and three parallel experiments were used to calculate the average and standard deviation each time.

Another assay has as its system MV-4-11 cells. The assay can be described thus: Effect of the compound on proliferation of MV-4-11 cells (MTS). To be noted: Homo sapiens. The method, then: MV-4-11 cells were cultured with IMDM plus 10% fetal bovine serum and collected. The cell concentration was diluted according to the action time of 7 days, and 180 ul of cell suspension was added to each well of a 96-well cell plate to make the cell count to be 2000. 20 ul of DMSO with a final concentration of 0.2% was added to the control cell wells. The compound was diluted 5-fold with the 10 mM stock solution, and 20 ul was also added to the compound cell wells (the final concentration of DMSO was 0.2%). The cells were placed in a 37° C., 5% CO2 incubator and incubated for 7 days. After preparing the reaction solution according to the MTS kit (Promega, G5430), 20 μL was added to each well, incubated in a 37° C., 5% CO2 incubator for 3-4 h. Read the 490 nm absorbance value with a microtiter plate, and used the 690 nm absorbance value as the background value and OD490-OD690 as the final initial data. The formula for calculating the inhibition rate of the compound was: inhibition rate=(OD DMSO-ODcompound)/(ODDMSO-Oblank)×100%. The compound's proliferation inhibition IC50 was fitted by Graph Pad Prism 5.0. The experiment was repeated three times, and three parallel experiments were used to calculate the average and standard deviation each time. The cell viability test results were shown in Table 3: A means cell viability IC50<1 μM, B means cell viability 1 μM≤IC50≤20 μM, C means cell viability IC50>20 μM.

Another assay deals with MM.1S cells. Description: Effect of the compound on the proliferation of MM.1S cells (MTS). To be noted: Homo sapiens, MM1.S, 168 h, 7 days, read-out: Cell inhibitory activity (IC50). The gist of the method:
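In 1640 medium + 10% FBS, 20,000 cells per well were treated with 5-fold compound dilutions at 0.2% DMSO for 7 days at 37° C., 5% CO2. MTS was read after 3–4 h as OD490−OD690, inhibition was calculated against DMSO and blank wells, and IC50 was fitted; three independent experiments were run.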

For assay [1], the system named is Colorectal cancer cells HCT-116. The assay can be described thus: Proliferation of other tumor cells, HCT-116 (WST-8). Conditions: Homo sapiens, 96 h, HCT-116 cells, 4 days, read-out: Inhibitory activity on proliferation, HCT-116 (IC50). The procedure: (§1) The human triple negative breast cancer cells MDA-MB-468 and MDA-MB-231 used in this experiment were purchased from the Shanghai Cell Bank, in which L-15 medium added with 10% fetal bovine serum (FBS) and 1% double antibody was used. At 37° C., MDA-MB-468 and MDA-MB-231 cells were cultured in an incubator without CO2. Colorectal cancer cells HCT-116 were cultured in McCOY's 5A medium with 1% double antibody and 10% fetal bovine serum (FBS); prostate cancer cells DU145 were cultured in MEM medium with 1% double antibody and 10% fetal bovine serum (FBS); prostate cancer cells PC-3 were cultured in F-12 K medium with 1% double antibody and 10% fetal bovine serum (FBS); grew at 37° C., 5% CO2.
(§2) In the cell activity test experiment, 90 μL cell suspension with appropriate concentration was added to a 96-well cell culture plate according to the cell growth, each compound to be tested was gradient diluted with the corresponding medium, 10 μL diluted compound was added to 90 μL cells, and then incubated at 37° C. for 4 days. Cell proliferation was analyzed by WST-8, which could be reduced by lactate dehydrogenase in the cells to a yellow formazan. 10 μL of WST-8 reagent (DOJINDO) was added to the cells and reacted for more than 1 hour at 37° C., DMSO-treated cells were used as […]. The absorption value of 490 nm was read by enzyme-labeled plate, and the absorption value of 690 nm was taken as the background value, and OD490-OD690 was taken as the final original data, and the data was processed by GraphPad Prism6 software. The formula for calculating the inhibition rate of the compound was: inhibition rate=(ODDMSO−ODcompound)/(ODDMSO−Oblank)×100%. The compound's proliferation inhibition IC50 was fitted by Graph Pad Prism 5.0. The experiment was repeated three times, and three parallel experiments were used to calculate the average and standard deviation each time. The cell viability test results were shown in Table 4: A means cell viability IC50<1 μM, B means cell viability 1 μM≤IC50≤20 μM, C means cell viability IC50>20 μM, NT means not tested.
A general note: Tetrazolium dyes change colour on reduction, which living cells bring about.

The subject of assay [2] is prostate cancer cells PC-3. The assay can be described thus: Proliferation of other tumor cells, PC-3 (WST-8). To be noted: Homo sapiens, 96 h, PC-3 cells, 4 days, read-out: Inhibitory activity on proliferation, PC-3 (IC50). The procedure:
as §1, §2

In assay [3] the test system is prostate cancer cells DU145. Description: Proliferation of other tumor cells, DU145 (WST-8). To be noted: Homo sapiens, DU-145, 96 h, 4 days, read-out: Inhibitory activity on proliferation, DU145 (IC50). The method, then:
as §1, §2

For assay [4], the system named is triple negative breast cancer cells MDA-MB-231. The assay can be described thus: Proliferation of other tumor cells, MDA-MB-231 (WST-8). To be noted: Homo sapiens, 96 h, MDA-MB-231 cells, 4 days, read-out: Inhibitory activity on proliferation, MDA-MB-231 (IC50). The procedure:
as §1, §2

[5] abbreviates: MV4-11, 168 h, 7 days, MTS, read-out: Inhibitory activity (IC50).

Consider `O=C1CCC(N2Cc3c(OCc4cn(-c5cccc(OC(F)(F)F)c5)nn4)cccc3C2=O)C(=O)N1` (stereo not shown) [Compound 20, 3-(1-oxo-4-((1-(3-(trifluoromethoxy)phenyl)-1H-1,2,3-triazol-4-)methoxy)isoindolin-2-) piperidine-2,6-dione], for which the IC50 in the assay on Mino cells was less than 150 nM; in the assay on MV-4-11 cells (setting [5]), 1000 to 20000 nM; in the assay on MM.1S cells, less than 150 nM.

`O=C1CCC(N2Cc3c(OCc4cn(-c5ccc6[nH]ccc6c5)nn4)cccc3C2=O)C(=O)N1` (stereo not shown) [Compound 26, 3-(4-((1-(1H-indol-5-)-1H-1,2,3-triazol-4-)methoxy)-1-oxoisoindolin-2-) piperidine-2,6-dione]: the values for the IC50 with Mino cells, in the assay on MV-4-11 cells (setting [5]) and in the assay on MM.1S cells were less than 150 nM, less than 1000 nM and less than 150 nM, respectively.

Turning to `COCCn1ccc2cc(-n3cc(COc4cccc5c4CN(C4CCC(=O)NC4=O)C5=O)nn3)ccc21` (stereo not shown) [Compound 28], the values for the IC50 with Mino cells, in the assay on MV-4-11 cells (setting [5]) and in the assay on MM.1S cells were less than 150 nM, less than 1000 nM and less than 150 nM, respectively.

Turning to `O=C1CCC(N2Cc3c(OCc4cn(-c5ccc(OC6CCOCC6)cc5)nn4)cccc3C2=O)C(=O)N1` (stereo not shown) [Compound 30, 3-(1-oxo-4-((1-(4-((2H-tetrahydropyran-4-)oxy)phenyl)-1H-1,2,3-triazol-4-)methoxy)isoindolin-2-)piperidine-2,6-dione], the IC50 was less than 150 nM with Mino cells; 1000 to 20000 nM in assay [1]; less than 150 nM with MM.1S cells; 1000 to 20000 nM in assay [2]; 1000 to 20000 nM in assay [3]; 1000 to 20000 nM in assay [4].

Take `O=C1CCC(N2Cc3c(OCc4cnc(-c5ccc(OC(F)(F)F)cc5)o4)cccc3C2=O)C(=O)N1` (stereo not shown) [Compound 45, 3-(1-oxo-4-((2-(4-trifluoromethoxyphenyl)oxazol-5-)methoxy)isoindolin-2-) piperidine-2,6-dione]: the IC50 was less than 150 nM in the assay with Mino cells; 1000 to 20000 nM in assay [1]; less than 150 nM in the assay on MM.1S cells; 1000 to 20000 nM in assay [2]; 1000 to 20000 nM in assay [3]; more than 20000 nM in assay [4].

In the case of `O=C1CCC(N2Cc3c(OC[C@@H]4CCN(c5ccc(OC(F)(F)F)cc5)C4)cccc3C2=O)C(=O)N1` (stereo partly drawn) [Compound 70, 3-(1-oxo-4-(((R)-1-(4-(trifluoromethoxy)phenyl)pyrrolin-3-)methoxy)isoindolin-2-) piperidine-2,6-dione], the IC50 is 150 to 20000 nM in the assay on Mino cells, 1000 to 20000 nM in the assay with MV-4-11 cells (setting [5]) and less than 150 nM with MM.1S cells.

For the compound `O=C1CCC(N2Cc3c(OC[C@H]4CCN(c5ccc(OC(F)(F)F)cc5)C4)cccc3C2=O)C(=O)N1` (stereo partly drawn) [Compound 71, 3-(1-oxo-4-(((S)-1-(4-(trifluoromethoxy)phenyl)pyrrolin-3-)methoxy)isoindolin-2-) piperidine-2,6-dione], the IC50 was in the range of 150 to 20000 nM in the assay with Mino cells, 1000 to 20000 nM in the assay with MV-4-11 cells (setting [5]) and 150 to 20000 nM in the assay with MM.1S cells.

Take `Nc1cccc2c1C(=O)N(C1CCC(=O)NC1=O)C2=O` (stereo not shown) [Pomalidomide, pomalidomide, reference compound]: the IC50 in the assay with Mino cells was 150 to 20000 nM; in the assay on MV-4-11 cells (setting [5]), more than 20000 nM; with MV-4-11 cells (MV4-11, read-out: cytostatic activity (IC50) on MV-4-11 cells), more than 20000 nM; in the assay on MM.1S cells, less than 150 nM.
